Measurements: patent publication US9040663B2, “Melanocortin receptor-specific peptides” (AstraZeneca AB, priority 2009, dated 2015)
Like-named read-outs stand apart in the source and are kept apart here. Positions of bridges follow the written chain, without caps; N, C: chain ends. Non-standard residues stand in square brackets, D forms with d. Residues, ends and D or L forms follow the SMILES beside them. dPhe(4-CN) = N#Cc1ccc(C[C@@H](N)C(=O)O)cc1; Orn = NCCC[C@H](N)C(=O)O

Columns and labels:
hMC4-R [1] = target: T1, hMC4-R (Homo sapiens (Human), UniProt P32245); test: Competitive inhibition binding assay using [I125]-NDP-α-MSH, hMC4-R; conditions: membranes of HEK-293 cells expressing recombinant hMC4-R, read-out: MC4-R Ki
MC1-R = test: Competitive inhibition binding assay using [I125]-NDP-α-MSH, MC1-R; conditions: membranes of B-16 mouse melanoma cells (endogenous MC1-R), in some instances HEK-293 hMC1-R
How it was run: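 Radioligand displacement on membranes from B-16 mouse melanoma cells (endogenous MC1-R) or HEK-293 expressing recombinant hMC1-R, with 0.1 nM [I125]-NDP-α-MSH and increasing peptide concentrations in HEPES pH 7.5 buffer, 60 min at 37° C.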

hMC4-R [2] = target: T1, hMC4-R; test: High and low density hMC4-R functional assay (cAMP, HEK293-T-REx-MC4-R cells); type: cell-based; conditions: for Emax: NDP-α-MSH = 100%, read-out: Intrinsic Activity (%)
[3] = 0.1 ng/mL Doxycycline (low density hMC4-R system)
[4] = 10 ng/mL Doxycycline (high density hMC4-R system)

T1 sequence (P32245 whole entry): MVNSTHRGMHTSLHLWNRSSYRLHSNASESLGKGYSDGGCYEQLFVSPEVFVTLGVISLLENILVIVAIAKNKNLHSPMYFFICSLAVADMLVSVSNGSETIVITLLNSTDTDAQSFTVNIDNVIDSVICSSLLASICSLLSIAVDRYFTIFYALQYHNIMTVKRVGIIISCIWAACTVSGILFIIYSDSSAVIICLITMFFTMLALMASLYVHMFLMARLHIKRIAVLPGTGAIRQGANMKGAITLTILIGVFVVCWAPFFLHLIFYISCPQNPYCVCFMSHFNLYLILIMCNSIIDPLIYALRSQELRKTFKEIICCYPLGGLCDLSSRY

Compound	Ki (hMC4-R [1]) [nM]	Ki (MC1-R) [nM]	EC50 (hMC4-R [2]; [3]) [nM]	Emax (hMC4-R [2]; [3]) [%]	EC50 (hMC4-R [2]; [4]) [nM]	Emax (hMC4-R [2]; [4]) [%]
CC(=O)N[C@H](CCCNC(=N)N)C(=O)N[C@H]1CC(=O)NCCCC[C@@H](C(N)=O)NC(=O)[C@H](Cc2c[nH]c3ccccc23)NC(=O)[C@H](CCCNC(=N)N)NC(=O)[C@@H](Cc2ccccc2Cl)NC(=O)[C@H](CCC(N)=O)NC1=O [Example 79, Ac-D-Arg-cyclo(Asp-Gln-D-Phe(2-Cl)-Arg-Trp-Lys)-NH2]	10	395	4	48	0.2	85
CC(=O)N[C@@H](CCCNC(=N)N)C(=O)N[C@H]1CCC(=O)NCCC[C@@H](C(N)=O)NC(=O)[C@H](Cc2c[nH]c3ccccc23)NC(=O)[C@H](CCCNC(=N)N)NC(=O)[C@@H](Cc2ccc(C#N)cc2)NC(=O)[C@@H]2CCCN2C1=O [Example 39, Ac-Arg-cyclo(Glu-Pro-D-Phe(4-CN)-Arg-Trp-Orn)-NH2]	4	1550		4	1	79
CC(=O)N[C@@H](CCCNC(=N)N)C(=O)N[C@H]1CCC(=O)NCCC[C@@H](C(N)=O)NC(=O)[C@H](Cc2c[nH]c3ccccc23)NC(=O)[C@H](CCCNC(=N)N)NC(=O)[C@@H](Cc2ccc(Cl)cc2Cl)NC(=O)[C@H](CCN)NC1=O [Example 4, Ac-Arg-cyclo(Glu-Dab-D-Phe(2,4-diCl)-Arg-Trp-Orn)-NH2]	0.055	0.5		11	0.245	100
CC(=O)N[C@@H](CCCNC(=N)N)C(=O)N[C@H]1CCC(=O)NCCC[C@@H](C(N)=O)NC(=O)[C@H](Cc2c[nH]c3ccccc23)NC(=O)[C@H](CCCNC(=N)N)NC(=O)[C@@H](Cc2ccc(F)cc2)NC(=O)[C@H](CO)NC1=O [Example 65, Ac-Arg-cyclo(Glu-Ser-D-Phe(4-F)-Arg-Trp-Orn)-NH2]	5	43	1	58	0.085	93
CC(=O)N[C@@H](CCCNC(=N)N)C(=O)N[C@H]1CCC(=O)NCCC[C@@H](C(N)=O)NC(=O)[C@H](Cc2c[nH]c3ccccc23)NC(=O)[C@H](CCCNC(=N)N)NC(=O)[C@@H](Cc2ccc(F)cc2)NC(=O)[C@@H]2C[C@@H](O)CN2C1=O [Example 60, Ac-Arg-cyclo(Glu-Hyp-D-Phe(4-F)-Arg-Trp-Orn)-NH2]	1	89	0.45	62	0.14	95
CC(=O)N[C@@H](CCCNC(=N)N)C(=O)N[C@H]1CCC(=O)NCCC[C@@H](C(N)=O)NC(=O)[C@H](Cc2c[nH]c3ccccc23)NC(=O)[C@H](CCCNC(=N)N)NC(=O)[C@@H](Cc2cccc(C#N)c2)NC(=O)[C@H](CCN)NC1=O [Example 6, Ac-Arg-cyclo(Glu-Dab-D-Phe(3-CN)-Arg-Trp-Orn)-NH2]	33	43	37	29	2	100
CC(=O)N[C@@H](CCCNC(=N)N)C(=O)N[C@H]1CCCNC(=O)CC[C@@H](C(N)=O)NC(=O)[C@H](Cc2c[nH]c3ccccc23)NC(=O)[C@H](CCCNC(=N)N)NC(=O)[C@@H](Cc2ccc(F)c(F)c2)NC(=O)[C@H](CC(N)=O)NC1=O [Example 75, Ac-Arg-cyclo(Orn-Asn-D-Phe(3,4-diF)-Arg-Trp-Glu)-NH2]	3	190	0.65	43	0.125	87
CC(=O)N[C@@H](CCCNC(=N)N)C(=O)N[C@H]1CCC(=O)NCCC[C@@H](C(N)=O)NC(=O)[C@H](Cc2c[nH]c3ccccc23)NC(=O)[C@H](CCCNC(=N)N)NC(=O)[C@@H](Cc2ccc(C#N)cc2)NC(=O)[C@H](C)NC1=O [Example 41, Ac-Arg-cyclo(Glu-Ala-D-Phe(4-CN)-Arg-Trp-Orn)-NH2] (Ac-REA[dPhe(4-CN)]RW[Orn]-NH2; lactam 2-7)	3	4300		5	0.8	84
CC(=O)N[C@@H](CCCNC(=N)N)C(=O)N[C@H]1CCC(=O)NCCC[C@@H](C(N)=O)NC(=O)[C@H](Cc2c[nH]c3ccccc23)NC(=O)[C@H](CCCNC(=N)N)NC(=O)[C@@H](Cc2cc(F)cc(F)c2)NC(=O)[C@H](CC(N)=O)NC1=O [Example 76, Ac-Arg-cyclo(Glu-Asn-D-Phe(3,4-diF)-Arg-Trp-Orn)-NH2]	20	260	3	53	0.135	85
CC(=O)N[C@@H](CCCNC(=N)N)C(=O)N[C@H]1CCC(=O)NCCC[C@@H](C(N)=O)NC(=O)[C@H](Cc2c[nH]c3ccccc23)NC(=O)[C@H](CCCNC(=N)N)NC(=O)[C@@H](Cc2ccccc2F)NC(=O)[C@@H]2CCCN2C1=O [Example 66, Ac-Arg-cyclo(Glu-Pro-D-Phe(2-F)-Arg-Trp-Orn)-NH2]	6	95	5	32	0.265	88
CC(=O)N[C@@H](CCCNC(=N)N)C(=O)N[C@H]1CCCNC(=O)CC[C@@H](C(N)=O)NC(=O)[C@H](Cc2c[nH]c3ccccc23)NC(=O)[C@H](CCCNC(=N)N)NC(=O)[C@@H](Cc2ccccc2C(F)(F)F)NC(=O)[C@H](CCC(N)=O)NC1=O [Example 115, Ac-Arg-cyclo(Orn-Gln-D-Phe(2-CF3)-Arg-Trp-Glu)-NH2]	4	235	0.8	54	0.17	108
CC(=O)N[C@@H](CCCNC(=N)N)C(=O)N[C@H]1CCC(=O)NCCC[C@@H](C(N)=O)NC(=O)[C@H](Cc2c[nH]c3ccccc23)NC(=O)[C@H](CCCNC(=N)N)NC(=O)[C@@H](Cc2ccccc2F)NC(=O)[C@H](CC(N)=O)NC1=O [Example 84, Ac-Arg-cyclo(Glu-Asn-D-Phe(2-Cl)-Arg-Trp-Orn)-NH2]	7	245		78	0.09	97
CC(=O)NCC[C@@H]1NC(=O)[C@@H](NC(=O)[C@H](CCCNC(=N)N)NC(C)=O)CCC(=O)NCCC[C@@H](C(N)=O)NC(=O)[C@H](Cc2c[nH]c3ccccc23)NC(=O)[C@H](CCCNC(=N)N)NC(=O)[C@@H](Cc2ccccc2Cl)NC1=O [Example 56, Ac-Arg-cyclo(Glu-Dab(Acetyl)-D-Phe(2-Cl)-Arg-Trp-Orn)-NH2]	11	30	5	41	0.3	98
CC(=O)N[C@@H](CCCNC(=N)N)C(=O)N[C@H]1CCCNC(=O)CC[C@@H](C(N)=O)NC(=O)[C@H](Cc2c[nH]c3ccccc23)NC(=O)[C@H](CCCNC(=N)N)NC(=O)[C@@H](Cc2ccccc2F)NC(=O)[C@H](CC(N)=O)NC1=O [Example 71, Ac-Arg-cyclo(Orn-Asn-D-Phe(2-F)-Arg-Trp-Glu)-NH2]	9	335	1	86	0.085	91
CC(=O)N[C@@H](CCCNC(=N)N)C(=O)N[C@H]1CCC(=O)NCCC[C@@H](C(N)=O)NC(=O)[C@H](Cc2c[nH]c3ccccc23)NC(=O)[C@H](CCCNC(=N)N)NC(=O)[C@@H](Cc2cccc(Cl)c2)NC(=O)[C@H]([C@@H](C)O)NC1=O [Example 36, Ac-Arg-cyclo(Glu-Thr-D-Phe(3-Cl)-Arg-Trp-Orn)-NH2]	6	380		8	1	89
CC(=O)N[C@H](CCCNC(=N)N)C(=O)N[C@H]1CC(=O)NCCCC[C@@H](C(N)=O)NC(=O)[C@H](Cc2c[nH]c3ccccc23)NC(=O)[C@H](CCCNC(=N)N)NC(=O)[C@@H](Cc2cccc(Cl)c2)NC(=O)[C@H](CCC(N)=O)NC1=O [Example 80, Ac-D-Arg-cyclo(Asp-Gln-D-Phe(3-Cl)-Arg-Trp-Lys)-NH2]	7	1750	6	13	0.65	86
